Experimental data reported in publication PMC5891627, “Binding Specificity of Two PBPs in the Yellow Peach Moth Conogethes punctiferalis (Guenée)” (Frontiers in Physiology, 2018).

What was measured:
[1] = biological target: CpunPBP5 (Conogethes punctiferalis, UniProt A0A0M4FIS7); assay: Fluorescence displacement (competitive, 1-NPN) binding assay; conditions: for IC50 / Kd / activity at 6000 µM: pH = 7.4; for IC50: 1-NPN 2 μM as fluorescent reporter, 2 μM protein, read-out: IC50; for Kd: calculated from IC50: KD = [IC50]/(1+[1-NPN]/K1-NPN), read-out: KD (μM), calculated dissociation constant; for binding affinity to CpunPBP5 (in words): ranking among the 24 tested ligands; for activity at 6000 µM: ratio of fluorescence intensity at the pheromone concentration of 6 mM to the initial fluorescence intensity, read-out: Int (%)
Sequence of CpunPBP5 (A0A0M4FIS7 entry or part of it): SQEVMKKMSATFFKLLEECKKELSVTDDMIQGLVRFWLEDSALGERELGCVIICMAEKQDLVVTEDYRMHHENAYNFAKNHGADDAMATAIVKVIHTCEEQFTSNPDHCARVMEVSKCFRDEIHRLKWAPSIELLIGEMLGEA
Method: (§1) The fluorescence intensity was recorded on a FluoroMax-4 spectrophotometer (Horiba Scientific, USA) at room temperature using a 1 cm light path fluorimeter quartz cuvette. The fluorescent probe N-phenyl-1-naphthylamine (1-NPN) and all the tested chemicals were dissolved in HPLC purity methanol. The final concentration was prepared 1 mM. […] The fluorescence of 1-NPN was excited at 337 nm and emission spectra were recorded between […]. […] The GraphPad Prism 5 (GraphPad Software, Inc.) was used to estimate the K1−NPN (KD of complex protein /1-NPN) values by nonlinear regression for a unique site of binding. It was assumed that the proteins were 100% active, with a stoichiometry of 1:1 (protein:ligand) at saturation. […] In the equation, [1-NPN] is the free concentration of 1-NPN, and K1−NPN is the dissociation constant of the complex protein /1-NPN.

[2] = biological target: CpunPBP2 (Conogethes punctiferalis, UniProt A0A1D6X8W8); assay: as above; conditions: for IC50 / Kd / activity at 6000 µM: pH = 7.4; for IC50: 1-NPN 2 μM as fluorescent reporter, 2 μM protein, read-out: IC50; for Kd: calculated from IC50: KD = [IC50]/(1+[1-NPN]/K1-NPN), read-out: KD (μM), calculated dissociation constant; for binding affinity to CpunPBP2 (in words): ranking among the 24 tested ligands; for activity at 6000 µM: ratio of fluorescence intensity at the pheromone concentration of 6 mM to the initial fluorescence intensity, read-out: Int (%)
Sequence of CpunPBP2 (A0A1D6X8W8 entry or part of it): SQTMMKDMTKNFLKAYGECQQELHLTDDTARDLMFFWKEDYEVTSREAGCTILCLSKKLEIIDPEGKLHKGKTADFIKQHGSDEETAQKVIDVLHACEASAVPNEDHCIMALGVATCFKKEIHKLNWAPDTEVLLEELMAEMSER
Method: as §1

[3] = biological target: CpunPBP2-m2 (CpunPBP2-Phe33 mutant) (Conogethes punctiferalis, UniProt A0A1D6X8W8, F57Y); assay: Fluorescence displacement binding assay of mutants; conditions: for Kd: read-out: KD, calculated dissociation constant
Sequence of CpunPBP2-m2 (CpunPBP2-Phe33 mutant) (A0A1D6X8W8 entry or part of it F57Y): as the sequence (A0A1D6X8W8 entry or part of it) above, with F36Y counted along it
Method: (§2) The fluorescence intensity was recorded on a FluoroMax-4 spectrophotometer (Horiba Scientific, USA) at room temperature using a 1 cm light path fluorimeter quartz cuvette. The fluorescent probe N-phenyl-1-naphthylamine (1-NPN) and all the tested chemicals were dissolved in HPLC purity methanol. The final concentration was prepared 1 mM. To measure the affinity of florescent ligand 1-NPN to each protein, a 2 μM solution of the protein in 50 mM Tris-HCl, pH 7.4, was titrated with aliquots of 1 mM ligand in methanol to final concentrations of 1–8 μM. The fluorescence of 1-NPN was excited at 337 nm and emission spectra were recorded between […] and 450 nm. The affinity of other ligands was measured in competitive binding assays, using 1-NPN as the fluorescent reporter at 2 μM concentration and different concentrations of each ligands. The GraphPad Prism 5 (GraphPad Software, Inc.) was used to estimate the K1−NPN (KD of complex protein /1-NPN) values by nonlinear regression for a unique site of binding. It was assumed that the proteins were 100% active, with a stoichiometry of 1:1 (protein:ligand) at saturation. For other competitor ligands, the dissociation constants were calculated from the corresponding IC50 (concentrations of ligands halving the initial fluorescence value of 1-NPN) values using Microsoft Office Excel 2010, with the formula: KD = [IC50]/(1+[1-NPN]/K1−NPN). In the equation, [1-NPN] is the free concentration of 1-NPN, and K1−NPN is the dissociation constant of the complex protein /1-NPN.
(§3) Four mutants of CpunPBP2 and four mutants of CpunPBP5 were developed using the QuikChange Lightning Site-Directed Mutagenesis Kit (Stratagene, USA). The mutational primers were designed manually. Mutation sites are underlined in Table S2. The CpunPBP2/pGEM-T Easy construct was used as a template. The PCR conditions were 95°C for 5 min, followed by 30 cycles of 95°C for 30 s, 58°C for 30 s and 68°C for 1 min, and final extension at 72°C for 10 min. The correct insertion of mutation was subcloned into pGEM-T Easy vector (TransGen, Beijing, China). The expression system and fluorescence binding assay were conducted as mentioned for wild type proteins.
(§4) Supplementary file Image3.jpg: Figure S3 SDS-PAGE analyses of purified CpunPBP2 and CpunPBP5 with their mutants. M: marker protein. (A)1:CpunPBP2 original protein. (A)2: CpunPBP2-Phe9 mutant (CpunPBP2-m1). (A)3: CpunPBP2-Phe33 mutant (CpunPBP2-m2). (A)4: CpunPBP2-Ser53 mutant (CpunPBP2-m3). (A)5: CpunPBP2-Phe115 mutant (CpunPBP2-m4). (B)1:CpunPBP5 original protein. (B)2: CpunPBP5-Ser9 mutant (CpunPBP5-m1). (B)3: CpunPBP5-Phe12 mutant (CpunPBP5-m2). (B)4: CpunPBP5-Val115 mutant (CpunPBP5-m3). (B)5: CpunPBP5-Arg120 mutant (CpunPBP5-m4). Click here for additional data file.

[4] = biological target: CpunPBP5-m3 (CpunPBP5-Val115 mutant) (Conogethes punctiferalis, UniProt A0A0M4FIS7, V140A); assay: Fluorescence displacement binding assay of mutants
Sequence of CpunPBP5-m3 (CpunPBP5-Val115 mutant) (A0A0M4FIS7 entry or part of it V140A): as the sequence (A0A0M4FIS7 entry or part of it) above, with V115A counted along it
Method: as §2, §3, §4

[5] = biological target: CpunPBP2-m4 (CpunPBP2-Phe115 mutant) (Conogethes punctiferalis, UniProt A0A1D6X8W8, F139Y); assay: Fluorescence displacement binding assay of mutants; conditions: for Kd: read-out: KD, calculated dissociation constant
Sequence of CpunPBP2-m4 (CpunPBP2-Phe115 mutant) (A0A1D6X8W8 entry or part of it F139Y): as the sequence (A0A1D6X8W8 entry or part of it) above, with F118Y counted along it
Method: as §2, §3, §4

[6] = biological target: CpunPBP2-m3 (CpunPBP2-Ser53 mutant) (Conogethes punctiferalis, UniProt A0A1D6X8W8, S77Y); assay: Fluorescence displacement binding assay of mutants; conditions: for Kd: read-out: KD, calculated dissociation constant
Sequence of CpunPBP2-m3 (CpunPBP2-Ser53 mutant) (A0A1D6X8W8 entry or part of it S77Y): as the sequence (A0A1D6X8W8 entry or part of it) above, with S56Y counted along it
Method: as §2, §3, §4

[7] = biological target: CpunPBP5-m1 (CpunPBP5-Ser9 mutant) (Conogethes punctiferalis, UniProt A0A0M4FIS7, S34T); assay: Fluorescence displacement binding assay of mutants
Sequence of CpunPBP5-m1 (CpunPBP5-Ser9 mutant) (A0A0M4FIS7 entry or part of it S34T): as the sequence (A0A0M4FIS7 entry or part of it) above, with S9T counted along it
Method: as §2, §3, §4

[8] = biological target: CpunPBP5-m4 (CpunPBP5-Arg120 mutant) (Conogethes punctiferalis, UniProt A0A0M4FIS7, R145K); assay: Fluorescence displacement binding assay of mutants
Sequence of CpunPBP5-m4 (CpunPBP5-Arg120 mutant) (A0A0M4FIS7 entry or part of it R145K): as the sequence (A0A0M4FIS7 entry or part of it) above, with R120K counted along it
Method: as §2, §3, §4

[9] = biological target: CpunPBP2-m1 (CpunPBP2-Phe9 mutant) (Conogethes punctiferalis, UniProt A0A1D6X8W8, F33Y); assay: Fluorescence displacement binding assay of mutants; conditions: for Kd: read-out: KD, calculated dissociation constant
Sequence of CpunPBP2-m1 (CpunPBP2-Phe9 mutant) (A0A1D6X8W8 entry or part of it F33Y): as the sequence (A0A1D6X8W8 entry or part of it) above, with F12Y counted along it
Method: as §2, §3, §4

[10] = biological target: CpunPBP5-m2 (CpunPBP5-Phe12 mutant) (Conogethes punctiferalis, UniProt A0A0M4FIS7, F37Y); assay: Fluorescence displacement binding assay of mutants
Sequence of CpunPBP5-m2 (CpunPBP5-Phe12 mutant) (A0A0M4FIS7 entry or part of it F37Y): as the sequence (A0A0M4FIS7 entry or part of it) above, with F12Y counted along it
Method: as §2, §3, §4

[11] = system: yellow peach moth males; design: method as in Liu et al., [1994]; conditions: ref Liu et al., [1994]; cited from earlier work

SMILES	IC50 [1]	Kd [1]	binding affinity to CpunPBP5 (in words) [1]	activity at 6000 µM [1]	IC50 [2]	Kd [2]	binding affinity to CpunPBP2 (in words) [2]	activity at 6000 µM [2]	IC50 [3]	Kd [3]	IC50 [4]	Kd [4]	IC50 [5]	Kd [5]	IC50 [6]	Kd [6]	IC50 [7]	Kd [7]	IC50 [8]	Kd [8]	also measured
CCCCC/C=C/CCCCCCCCC=O [E10-16:Ald, (E)-10-hexadecenal]	1330 ± 60 nM	0.6 ± 0.02 µM	highest binding ability	40 ± 1.53%	940 ± 30 nM	0.4 ± 0.01 µM	highest binding ability	39.5 ± 0.83%	1180 ± 200 nM	540 ± 90 nM	3640 ± 100 nM	1850 ± 160 nM	30000 ± 17600 nM	19900 ± 11700 nM	1040 ± 130 nM	110 ± 10 nM	1630 ± 10 nM	720 nM	2610 ± 780 nM	1060 ± 320 nM	binding affinity of mutant compared with CpunPBP5 (in words) ([4]; mutant CpunPBP5-m3 vs wild type): decreased the most; IC50 [9]: 800 ± 20 nM; Kd [9]: 220 ± 10 nM; IC50 [10]: 2730 ± 330 nM; Kd [10]: 1490 ± 180 nM
CCCCCCCCCCCCCCCC=O [Hexadecanal]	4510 ± 80 nM	3.65 ± 0.07 µM	–	46.83 ± 0.18%	1840 ± 20 nM	1.07 ± 0.01 µM	–	34.03 ± 0.34%	–	–	–	–	–	–	–	–	–	–	–	–	attraction of males in field trials [11]: do not attract males
CCCCC/C=C\CCCCCCCCC=O [Z10-16:Ald, (Z)-10-hexadecenal]	970 ± 20 nM	0.36 ± 0.01 µM	highest binding ability	40.6 ± 1.39%	980 ± 90 nM	0.42 ± 0.04 µM	highest binding ability	42.5 ± 1.88%	790 ± 30 nM	360 ± 10 nM	1620 ± 40 nM	820 ± 20 nM	15400 ± 3180 nM	10200 ± 2110 nM	920 ± 50 nM	100 nM	1410 ± 20 nM	720 ± 10 nM	2570 ± 550 nM	1040 ± 220 nM	attraction of males in field trials [11]: do not attract males; binding capacity of mutant compared with CpunPBP5 (in words) ([8]; mutant CpunPBP5-m4 vs wild type): decreased considerably; IC50 [9]: 760 ± 10 nM; Kd [9]: 210 nM; IC50 [10]: 1660 ± 30 nM; Kd [10]: 900 ± 20 nM
